# Literature values, collected in article PMC9689602, “Evaluation of ^68Ga-Radiolabeled Peptides for HER2 PET Imaging” (Diagnostics, 2022).
# Read-outs that look alike come from different tables or passages of the source.
# Assays:
# mice = conditions: up to 1 g/kg intravenous injection
# From the text: One drawback for peptides is their susceptibility to degradation from proteases present within organisms. […] Phosphoramidon can be used as an aid to protect peptides from quick degradation when evaluating our peptides in vivo. […] We are using phosphoramidon as a to ...
# HER2 = molecular target: HER2
# Procedure: Peptide imaging agents allow for quicker injection to imaging times along with a potential decrease in dose to the patient by using a shorter-lived radioisotope. Radiolabeled peptides are currently used in the clinic for the diagnosis of several cancer types. A widely used example is [^68Ga]DOTATATE (NETSPOT®) which was given FDA approval in 2016 and is used for imaging somatostatin receptor type 2 on neuroendocrine cancer with patient imaging 40 to 90 min after intravenous administration. Several HER2-targeting peptides have been reported which could have the potential to be ...
compound,measurement,setting,value
"CC(C)C[C@H](NP(=O)(O)O[C@@H]1O[C@@H](C)[C@H](O)[C@@H](O)[C@H]1O)C(=O)N[C@@H](Cc1c[nH]c2ccccc12)C(=O)O [phosphoramidon, Phosphoramidon]",toxicity in mice,mice,low toxicity and no death
DTFPYLGWWNPNEYRY,Kd,"HER2; highest affinity in OBOC library, read-out: affinity (Kd)",0.0186 µM
HER2 (from UniProt P04626),Kd,KCCYSL peptide,30 µM
KCCYSL,Kd,"HER2; binding to HER2, read-out: equilibrium dissociation constant",30 µM
